The values that follow are results of earlier work, collected in the CATMoS acute toxicity set (Mansouri et al. 2021).

Structures are written as SMILES. Where “and” joins values, the source holds several entries; their conditions need not be identical. Equal entries are not always repeated.

This series is described as follows: rat acute oral toxicity. The conditions noted are these: in vivo. The source says:
[…]The data set underlying the modeling effort for this project was initially compiled by NICEATM and U.S. EPA’s CCTE. Briefly, LD50 data were collected from rat acute oral systemic toxicity tests, including limit tests, ranges/confidence intervals, and discrete LD50 values. The full data set included 21,200 LD50 entries for 15,688 substances. […] Data were reviewed to ensure that LD50 values with obvious errors in the extracted data such as unit conversion errors (e.g., comma and decimal separator misplacements) were either fixed or removed. After this review, 16,209 LD50 values remained. Many of the chemicals represented had multiple LD50 entries, requiring that a single representative value per Chemical Abstracts Service Registry Number (CASRN) identifier be defined to facilitate modeling efforts. Based on ATWG feedback and to define the representative LD50 as a protective value while accounting for the distribution across multiple LD50s, the median of the lowest quartile was computed using only discrete LD50 values (omitting limit test data and range and confidence interval data). A detailed summary of the data compilation is available online on the NICEATM webpage dedicated to the collaborative modeling project (NTP 2020).
[…][…] For categorical designations, limit test and range/confidence interval LD50 data were integrated wherever possible. As such, the number of chemicals with end point values/calls varies across the modeling end points (Table 3) based on whether chemicals had representative LD50 values and/or other data. If a chemical had both, the representative value was used to determine categorical calls rather than limit test data. Some data were useable only for certain end points and categories depending on the thresholds. For example, ranges that spanned multiple hazard categories were considered only for the binary (very toxic/nontoxic) end points and omitted from rendering a determination for hazard category assignment.
[…]The final data set comprising 11,992 chemicals was split into training and evaluation sets […], respectively. This process was performed semirandomly by ordering chemicals based on the five end points (categorical and continuous LD50 values) and partitioning every fourth record into the evaluation set accordingly. This approach was taken to ensure an equivalent distribution of the LD50 values and the different hazard categories between the training and the evaluation sets without supervised sampling of the chemicals based on structures (Figure 1A). The sources of the chemical structures were also kept equivalent between the two sets, with chemical structures obtained from DSSTox, being the highest quality, representing over 75% of each set (Figure 1B).
One may read the LD50 as the dose at which mortality reaches 50%. Consider `COc1cc2c(cc1OC)C(c1ccc(N)cc1)=NN=C(C)C2`, for which the LD50 was 128 mg/kg.
On to `Cc1nn(-c2cc(NS(C)(=O)=O)c(Cl)cc2Cl)c(=O)n1C(F)F`, for which the median lethal dose (LD50) was 2860 mg/kg.
In the case of `Cc1ccc(C(=O)c2ccc(CC(=O)NNCC(=O)N3CCN(C)CC3)n2C)cc1`, the median lethal dose (LD50) is 978 mg/kg.
As for `COC(C)CCOC(C)=O` (configuration not stated), the LD50 was 4210 mg/kg.
For `Cc1cc2[nH]c(C(F)(F)F)nc2c([N+](=O)[O-])c1C`, the 50% lethal dose (LD50) is 67 mg/kg.
Turning to `O=C1C2C3CCC(C3)C2C(=O)N1CCCCN1CCN(c2ncccn2)CC1` (configuration not stated), the LD50 is 590 mg/kg.
On to `Cc1sc2ccccc2c1CC1=NCCN1`, for which the median lethal dose (LD50) was 74 mg/kg.
For `CC(C)C(=O)OCCc1ccccc1`, the LD50 is 5200 mg/kg.
For the compound `CCOP(=O)(OCC)SCSP(=S)(OCC)OCC`, the LD50 was 35.1 mg/kg.
For the compound `CCOP(=S)(OCC)OP(=S)(OCC)OCC`, the median lethal dose (LD50) is 5 mg/kg.
`CCCCNC(=S)NCCCC`: the LD50 was 350 mg/kg.
With `COCC=O`, the LD50 is 2330 mg/kg.
Consider `CN(C)CCCN1c2ccccc2Sc2cccnc21`, for which the 50% lethal dose (LD50) is 610 mg/kg.
In the case of `O=C=Nc1ccc([N+](=O)[O-])cc1`, the LD50 was 1600 mg/kg.
Turning to `CCCSc1ccc2[nH]c(NC(=O)OC)nc2c1`, the LD50 is 2400 mg/kg.
Consider `O=C(Nc1c(Cl)c(Cl)c(Cl)c2nc(C(F)(F)F)[nH]c12)c1ccccc1`, for which the LD50 is 100 mg/kg.
With `CCCCC[C@H](O)/C=C/[C@@H]1[C@@H](C/C=C\CCCC(=O)O)[C@@H](O)C[C@H]1O`, the 50% lethal dose (LD50) is 1170 mg/kg.
For `O=C1OCCO1`, the LD50 was 10000 mg/kg.
As for `O=NN1CN(N=O)CN(N=O)C1`, the LD50 was 160 mg/kg.
As for `FC(Cl)C(F)(Cl)Cl` (configuration not stated), the median lethal dose (LD50) was 7800 mg/kg.
In the case of `N#CSc1cccc(C(=O)O)c1`, the LD50 was 73 mg/kg.
For `COP(=S)(OC)Oc1ccc(C#N)cc1C`, the LD50 is 500 mg/kg.
Consider `CCN(CCC#N)c1cccc(C)c1`, for which the LD50 was 3710 mg/kg.
Take `CCOP(=S)(Oc1cccc2cccnc12)c1ccccc1` (configuration not stated): the LD50 is 150 mg/kg.
Consider `O=C(Cl)C(c1ccccc1)c1ccccc1`, for which the LD50 was 6330 mg/kg.
`CN(C)c1nc2cc(Cl)ccc2o1`: the LD50 is 800 mg/kg.
As for `CC(C)(O)Cc1ccccc1`, the LD50 was 1280 mg/kg.
`CC(C)OC(=O)C=CC(=O)OC(C)C`: the LD50 was 2140 mg/kg and 3250 mg/kg.
`COC(=S)SSC(=S)OC`: the LD50 was 240 mg/kg.
For the compound `Cc1cc(C=Cc2ccc3cc(N(C)C)ccc3[n+]2C)c(C)n1-c1ccccc1`, the median lethal dose (LD50) is 161 mg/kg.
As to `CCN(CC)C(=O)N[C@H]1C[C@@H]2c3cccc4[nH]cc(c34)C[C@H]2N(C)C1`, the LD50 was 100 mg/kg.
As for `CCOP(=S)(N=C1SCCS1)OCC`, the LD50 was 14 mg/kg.
Take `C=CC(=O)OCCCOCC`: the LD50 was 820 mg/kg.
On to `CCCCCCCCNC(C)C(O)c1ccc(SC(C)C)cc1` (configuration not stated), for which the median lethal dose (LD50) was 1740 mg/kg.
As for `Nc1ccc(/N=N/c2ccc(-c3ccc(/N=N/c4c(S(=O)(=O)O)cc5cc(S(=O)(=O)O)c(/N=N/c6ccccc6)c(O)c5c4N)cc3)cc2)c(N)c1`, the LD50 is 7600 mg/kg.
On to `COP(=S)(OC)SCSc1cc(Cl)ccc1Cl`, for which the median lethal dose (LD50) is 220 mg/kg.
As to `O=C(O)Cc1ccccc1Oc1c(Cl)c(Cl)cc(Cl)c1Cl`, the 50% lethal dose (LD50) is 303 mg/kg.
For the compound `Brc1cnc[nH]1`, the 50% lethal dose (LD50) was 250 mg/kg.
Turning to `C=COC(=O)CCCCC(=O)OC`, the 50% lethal dose (LD50) is 6200 mg/kg.
In the case of `C=CC(=O)NCC(OC)OC`, the LD50 is 1200 mg/kg.
On to `CCOCc1cnc(C)nc1N`, for which the 50% lethal dose (LD50) was 1450 mg/kg.
On to `CCC(C)c1ccccc1OC(N)=O` (configuration not stated), for which the LD50 is 410 mg/kg.
Regarding `ClCC(Cl)(Cl)Cl`, the LD50 was 670 mg/kg.
`CC(C)(c1cc(Cl)c(O)c(Cl)c1)c1cc(Cl)c(O)c(Cl)c1`: the LD50 is 7430 mg/kg.
With `CCOP(=O)(OCC)SCn1nc(Cl)c(C)cc1=O`, the median lethal dose (LD50) was 27 mg/kg.
On to `CC(C)OP(=O)(OC(C)C)SCc1ccccc1`, for which the median lethal dose (LD50) is 550 mg/kg.
Regarding `COC1CCC=CO1` (configuration not stated), the LD50 is 1410 mg/kg.
On to `CC(C(=O)O)c1ccc(N2CC=CC2)c(Cl)c1` (configuration not stated), for which the LD50 was 351 mg/kg.
Take `CCCC(=NOCC)C1=C(O)CC(C2CCCSC2)CC1=O` (configuration not stated): the 50% lethal dose (LD50) was 3940 mg/kg.
For the compound `Cc1cccc2sc(N)nc12`, the LD50 was 500 mg/kg.
Turning to `CCOC1c2ccccc2C(=O)N(C)c2ccccc21` (configuration not stated), the median lethal dose (LD50) is 4000 mg/kg.
Take `CS(=O)C(C)(C)C(=O)O` (configuration not stated): the median lethal dose (LD50) was 7500 mg/kg.
`O=C(C(F)(F)F)C(F)(F)Cl`: the LD50 was 85 mg/kg.
As for `CCOP(=S)(OC)SCN1C(=O)c2ccccc2C1=O` (configuration not stated), the LD50 was 50 mg/kg.
For `CNS(=O)(=O)CCNC(=O)N(CCCl)N=O`, the LD50 was 40 mg/kg.
In the case of `Cc1cncc(C)n1`, the 50% lethal dose (LD50) is 880 mg/kg.
Turning to `CCC(CC)COCCC#N`, the median lethal dose (LD50) is 2460 mg/kg.
As to `C=C[Si](OCCOC)(OCCOC)OCCOC`, the LD50 was 2960 mg/kg.
As for `O=NN1CCCCC1`, the 50% lethal dose (LD50) is 200 mg/kg.
In the case of `CC(C)=NNC(=O)CSc1cc(Oc2ccccc2)ncn1`, the LD50 is 1080 mg/kg.
With `c1ccc2c3c([nH]c2c1)CCCC3`, the median lethal dose (LD50) is 2650 mg/kg.
Turning to `O=C(O)Cc1cc(O)ccc1Nc1c(Cl)cccc1Cl`, the LD50 was 1430 mg/kg.
In the case of `COc1cc(N)c2c(c1N)C(=O)c1ccccc1C2=O`, the LD50 is 891 mg/kg.
Consider `O=P(CCCl)(OCCCl)OCCCl`, for which the LD50 was 880 mg/kg.
On to `CCC1(NC(N)=O)CCCC1`, for which the LD50 was 950 mg/kg.
Consider `COc1ccc2c3c1OC1C(O)CCC4C(C2)N(C)CCC341` (configuration not stated), for which the LD50 is 359 mg/kg.
As for `CCc1ccc(C)nc1`, the LD50 is 368 mg/kg.
On to `CCC1CCC(C)NC1` (configuration not stated), for which the LD50 was 540 mg/kg.
For the compound `Clc1ccc2ncoc2c1`, the LD50 is 791 mg/kg.
In the case of `NS(=O)(=O)c1cc(C(=O)O)cc(N2CCCC2)c1Oc1ccccc1`, the 50% lethal dose (LD50) was 5600 mg/kg.
As to `CN1CCC23c4c5ccc(O)c4OC2C(N=[N+]=[N-])CCC3(O)C1C5` (configuration not stated), the median lethal dose (LD50) was 190 mg/kg.
As to `O=c1oc2ccccc2c(O)c1C(CC(O)c1ccc(-c2ccc(Br)cc2)cc1)c1ccccc1` (configuration not stated), the LD50 is 0.49 mg/kg.
Turning to `CC(CN(C)C)CN1c2ccccc2Sc2ccccc21` (configuration not stated), the median lethal dose (LD50) is 210 mg/kg.
Consider `CC(N)C1CCC(c2ccccc2)CC1` (configuration not stated), for which the 50% lethal dose (LD50) was 690 mg/kg.
For the compound `O=c1ccc2cc3ccoc3c(O)c2o1`, the LD50 is 480 mg/kg.
Regarding `NC(=O)CBr`, the median lethal dose (LD50) is 100 mg/kg.
As to `CCCN=C(C(OCC)c1ccccc1)N1CCCCCC1` (configuration not stated), the LD50 was 220 mg/kg.
For `CCN(CC)CCN(CCN(CC)CC)n1cc(-c2ccc(Cl)cc2)c2cc(Cl)ccc21`, the LD50 is 780 mg/kg.
For the compound `Cc1ccc2oc(=O)ccc2c1`, the LD50 is 1680 mg/kg.
Regarding `CC(C)CCCC(C)N` (configuration not stated), the LD50 was 538 mg/kg.
On to `c1ccc2c(c1)Sc1ccccc1N2CC1CN2CCC1CC2` (configuration not stated), for which the median lethal dose (LD50) was 245 mg/kg.
On to `O=C(OCC=Cc1ccccc1)c1ccccc1`, for which the LD50 is 4000 mg/kg.
In the case of `CCc1cc(=O)c2ccccc2o1`, the LD50 is 1400 mg/kg.
Regarding `COC(=O)C(C)N(C(=O)c1ccccc1)c1ccc(F)c(Cl)c1` (configuration not stated), the median lethal dose (LD50) is 1200 mg/kg.
For `CCCCCOc1ccc(C2SC(=O)NC2=O)cc1OCC` (configuration not stated), the median lethal dose (LD50) was 4330 mg/kg.
On to `CNC(=O)Oc1cc(C)c(C)c(C)c1`, for which the LD50 was 178 mg/kg.
`CC(Cl)(Cl)C(=O)OCCOc1cc(Cl)c(Cl)cc1Cl`: the LD50 was 1000 mg/kg.
Consider `ClCCOCOCCCl`, for which the LD50 was 65 mg/kg.
With `C/C=C(C)/C=C/C=C(C)C`, the median lethal dose (LD50) was 1900 mg/kg.
For the compound `NCC1CCC(CN)CC1` (configuration not stated), the LD50 was 530 mg/kg.
For `CCCCCCCCOC(=O)Oc1ccc([N+](=O)[O-])cc1[N+](=O)[O-]`, the LD50 was 196 mg/kg.
As to `CCc1ccc(=O)n(CSP(=S)(OC)OC)n1`, the median lethal dose (LD50) was 30 mg/kg.
